What was measured:
Assay in all cases: relative viability (nuclei count vs DMSO), 5 days (fraction); higher = more cells survive
GW-2580 + Bortezomib = compound: COC1=CC=C(C=C1)COC2=C(C=C(C=C2)CC3=CN=C(N=C3N)N)OC [GW-2580] + CC(C)C[C@H](NC(=O)[C@H](Cc1ccccc1)NC(=O)c1cnccn1)B(O)O [Bortezomib] (partner 0.002 µM)
Outline: (§1)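 Dosing by pin tool came one day after lung cancer cell lines were seeded in 1536-well plates, using either one drug or a fixed anchor-drug dose plus five library-drug doses (not always all listed) in √10 steps. After 5 days, nuclei were counted on 4× images. Relative viability is treated-well nuclei count divided by vehicle-well nuclei count, and values are medians of duplicate plates.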

GW-2580 + Luminespib = compound: COC1=CC=C(C=C1)COC2=C(C=C(C=C2)CC3=CN=C(N=C3N)N)OC [GW-2580] + CCNC(=O)c1noc(-c2cc(C(C)C)c(O)cc2O)c1-c1ccc(CN2CCOCC2)cc1 [Luminespib] (partner 0.01 µM)
Outline: as §1

GW-2580 + Vorinostat = compound: COC1=CC=C(C=C1)COC2=C(C=C(C=C2)CC3=CN=C(N=C3N)N)OC [GW-2580] + O=C(CCCCCCC(=O)Nc1ccccc1)NO [Vorinostat] (partner 1 µM)
Outline: as §1

Fedratinib + AZD7762 = compound: Cc1cnc(Nc2ccc(OCCN3CCCC3)cc2)nc1Nc1cccc(S(=O)(=O)NC(C)(C)C)c1 [Fedratinib] + NC(=O)Nc1cc(-c2cccc(F)c2)sc1C(=O)N[C@H]1CCCNC1 [AZD7762] (partner 0.2 µM)
Outline: as §1

GW-2580 + AZD7762 = compound: COC1=CC=C(C=C1)COC2=C(C=C(C=C2)CC3=CN=C(N=C3N)N)OC [GW-2580] + NC(=O)Nc1cc(-c2cccc(F)c2)sc1C(=O)N[C@H]1CCCNC1 [AZD7762] (partner 0.2 µM)
Outline: as §1

Row | Cell Line | relative viability (GW-2580 + Bortezomib; first compound 0.08 µM) | relative viability (GW-2580 + Bortezomib; first compound 0.8 µM) | relative viability (GW-2580 + Bortezomib; first compound 2.53 µM) | relative viability (GW-2580 + Bortezomib; first compound 8 µM) | relative viability (GW-2580 + Luminespib; first compound 0.08 µM) | relative viability (GW-2580 + Luminespib; first compound 0.8 µM) | relative viability (GW-2580 + Luminespib; first compound 2.53 µM) | relative viability (GW-2580 + Luminespib; first compound 8 µM) | relative viability (GW-2580 + Vorinostat; first compound 0.08 µM) | relative viability (GW-2580 + Vorinostat; first compound 0.8 µM) | relative viability (GW-2580 + Vorinostat; first compound 2.53 µM) | relative viability (GW-2580 + Vorinostat; first compound 8 µM) | relative viability (Fedratinib + AZD7762; first compound 0.1 µM) | relative viability (Fedratinib + AZD7762; first compound 0.3162 µM) | relative viability (Fedratinib + AZD7762; first compound 1 µM) | relative viability (GW-2580 + AZD7762; first compound 0.08 µM) | relative viability (GW-2580 + AZD7762; first compound 0.8 µM) | relative viability (GW-2580 + AZD7762; first compound 2.53 µM) | relative viability (GW-2580 + AZD7762; first compound 8 µM)
1 | COR-L23 | 1.2 | 1.21 | 0.929 | 1.2 | 0.875 | 0.774 | 0.828 | 0.808 | 0.495 | 0.516 | 0.426 | 0.524 |  |  |  |  |  |  | 
2 | ABC-1 | 0.295 | 0.324 | 0.287 | 0.306 | 0.637 | 0.505 | 0.391 | 0.518 | 0.972 | 1.17 | 1.06 | 0.98 | 0.741 | 0.877 | 0.792 | 0.836 | 0.941 | 0.717 | 0.829
3 | NCI-H522 |  |  |  |  | 1.22 | 1.57 | 1.14 | 1.24 | 0.976 | 0.862 | 0.861 | 0.986 | 0.829 | 0.851 | 0.77 | 0.903 | 0.806 | 0.873 | 0.872
4 | SW 900 |  |  |  |  | 0.17 | 0.182 | 0.161 | 0.146 | 0.53 | 0.517 | 0.419 | 0.528 | 0.621 | 0.692 | 0.608 | 0.68 | 0.616 | 0.574 | 0.557
5 | NCI-H1792 | 0.926 | 1.07 | 0.734 | 1.1 | 0.503 | 0.444 | 0.567 | 0.411 |  |  |  |  | 0.58 | 0.774 | 0.483 | 0.681 | 0.712 | 0.63 | 0.697
6 | NCI-H1703 | 0.307 | 0.351 | 0.532 | 0.335 |  |  |  |  |  |  |  |  | 0.126 | 0.138 | 0.121 | 0.115 | 0.128 | 0.122 | 0.108
7 | SK-LU-1 | 0.902 | 1.42 | 0.73 | 1.54 | 0.206 | 0.183 | 0.212 | 0.206 | 0.924 | 0.918 | 0.648 | 0.734 |  |  |  |  |  |  | 
8 | COR-L 105 | 0.829 | 0.99 | 0.67 | 0.797 | 0.63 | 0.588 | 0.681 | 0.647 | 0.833 | 0.926 | 0.561 | 0.697 |  |  |  |  |  |  | 
9 | Calu-6 | 1.06 | 1.09 | 0.948 | 1.05 |  |  |  |  |  |  |  |  |  |  |  |  |  |  | 
10 | HCC-366 | 1.22 | 1.08 | 1.24 | 1.12 |  |  |  |  | 0.344 | 0.395 | 0.342 | 0.357 | 0.326 | 0.234 | 0.188 | 0.359 | 0.317 | 0.27 | 0.142
11 | NCI-H358 |  |  |  |  | 0.34 | 0.344 | 0.364 | 0.463 | 0.754 | 0.816 | 0.631 | 0.984 | 0.502 | 0.49 | 0.438 | 0.588 | 0.604 | 0.516 | 0.363
12 | NCI-H1944 |  |  |  |  | 0.692 | 0.767 | 0.7 | 0.628 | 0.551 | 0.53 | 0.513 | 0.52 | 0.475 | 0.594 | 0.458 | 0.572 | 0.498 | 0.485 | 0.452
13 | NCI-H1648 |  |  |  |  |  |  |  |  | 0.761 |  | 0.541 | 0.496 | 0.818 | 0.558 | 0.548 | 0.713 |  | 0.778 | 0.583
14 | EBC-1 | 0.609 | 0.572 | 0.492 | 0.554 |  |  |  |  |  |  |  |  |  |  |  |  |  |  | 
15 | NCI-H1299 | 1.02 | 0.949 | 1.07 | 0.941 |  |  |  |  |  |  |  |  |  |  |  |  |  |  | 
16 | NCI-H2228 | 1.03 | 1.1 | 0.958 | 0.986 | 0.167 | 0.185 | 0.0943 | 0.183 | 0.605 | 0.759 | 0.539 | 0.509 |  |  |  |  |  |  | 
17 | NCI-H2342 |  |  |  |  | 0.788 | 0.77 | 0.859 | 0.714 | 0.711 | 0.75 | 0.625 | 0.751 | 0.443 | 0.528 | 0.56 | 0.585 | 0.481 | 0.497 | 0.444
18 | IA-LM | 0.967 | 0.574 | 0.912 | 0.865 |  |  |  |  |  | 1.21 | 0.851 | 1.07 |  |  |  |  |  |  | 
19 | SK-MES-1 |  |  |  |  | 0.869 | 0.989 | 0.701 | 0.83 | 1.31 | 1.33 | 0.993 | 1.16 |  |  |  |  |  |  | 
20 | NCI-H2170 |  |  |  |  | 0.827 | 0.572 | 0.851 | 0.594 | 0.932 | 0.903 | 0.64 | 0.775 | 0.77 | 0.821 | 0.644 | 0.982 | 0.864 | 0.723 | 0.837
21 | SW 1573 | 0.903 | 0.932 | 0.987 | 0.798 | 0.257 | 0.213 | 0.24 | 0.217 | 0.968 | 0.771 | 0.626 | 0.746 |  |  |  |  |  |  | 
22 | NCI-H661 | 0.741 | 0.752 | 0.747 | 0.676 | 0.978 | 0.996 | 0.931 | 0.704 | 0.86 | 0.801 | 0.767 | 0.632 |  |  |  |  |  |  | 
23 | NCI-H1793 |  |  |  |  | 0.187 | 0.238 | 0.162 | 0.151 | 0.755 | 0.88 | 0.566 | 0.718 | 0.324 | 0.402 | 0.326 | 0.587 | 0.382 | 0.266 | 0.323
24 | NCI-H520 | 0.58 | 0.923 | 0.602 | 0.672 | 0.224 | 0.202 | 0.196 | 0.274 | 0.935 | 0.651 | 0.768 | 0.682 |  |  |  |  |  |  | 
25 | NCI-H2023 | 1.01 | 1.14 | 0.733 | 0.904 | 0.932 | 1.07 | 1.26 | 0.717 | 0.812 | 0.882 | 0.598 | 0.762 |  |  |  |  |  |  | 
26 | NCI-H2009 | 1.02 | 0.955 | 0.931 | 0.844 | 1.15 | 1.11 | 0.999 | 0.876 | 0.774 | 0.834 | 0.702 | 0.679 |  |  |  |  |  |  | 

From the supplement of paper PMC10307832
